From the NIST ThermoML archive (doi:10.1016/j.jct.2015.12.029)
± gives the expanded uncertainty stated by the source.

Assay: mn = molality of the nth substance listed, in mol/kg
Details: 100 kPa, Liquid; for molar conductivity: Alternating current cell with electrodes; for mass density: Vibrating tube method, m1 = 0.009007

CCCCn1cc[n+](C)c1.F[B-](F)(F)F [1-butyl-3-methylimidazolium tetrafluoroborate] + CCCCO
molar conductivity [S·m2/mol]
Details	283.15 K	288.15 K	293.15 K	298.15 K	303.15 K	308.15 K	313.15 K	318.15 K
m1 = 7.252e-05	0.00118 ± 1.2e-05	0.00135 ± 1.4e-05	0.00154 ± 1.6e-05	0.00177 ± 1.8e-05	0.00199 ± 2e-05	0.00224 ± 2.3e-05	0.0025 ± 2.6e-05	0.00278 ± 2.8e-05
m1 = 0.0001049	0.00114 ± 1.2e-05	0.0013 ± 1.3e-05	0.00148 ± 1.5e-05	0.00169 ± 1.7e-05	0.00191 ± 2e-05	0.00214 ± 2.2e-05	0.00238 ± 2.5e-05	0.00264 ± 2.7e-05
m1 = 0.0001948	0.00103 ± 1.1e-05	0.00118 ± 1.3e-05	0.00135 ± 1.4e-05	0.00154 ± 1.6e-05	0.00173 ± 1.9e-05	0.00193 ± 2.1e-05	0.00214 ± 2.3e-05	0.00237 ± 2.6e-05
m1 = 0.0002951	0.000958 ± 1e-05	0.00109 ± 1.2e-05	0.00125 ± 1.4e-05	0.00142 ± 1.5e-05	0.00158 ± 1.7e-05	0.00177 ± 1.9e-05	0.00197 ± 2.2e-05	0.00217 ± 2.4e-05
m1 = 0.0004065	0.000896 ± 1e-05	0.00102 ± 1.1e-05	0.00116 ± 1.3e-05	0.00132 ± 1.5e-05	0.00147 ± 1.6e-05	0.00164 ± 1.8e-05	0.00182 ± 2e-05	0.00201 ± 2.2e-05
m1 = 0.000564	0.000826 ± 9e-06	0.000939 ± 1.1e-05	0.00107 ± 1.2e-05	0.00121 ± 1.4e-05	0.00135 ± 1.5e-05	0.00151 ± 1.7e-05	0.00168 ± 1.9e-05	0.00184 ± 2.1e-05
m1 = 0.000759	0.000763 ± 9e-06	0.000869 ± 1e-05	0.000986 ± 1.1e-05	0.00112 ± 1.3e-05	0.00125 ± 1.4e-05	0.00139 ± 1.6e-05	0.00154 ± 1.8e-05	0.00169 ± 2e-05
m1 = 0.0009843	0.000711 ± 8e-06	0.000808 ± 9e-06	0.000917 ± 1e-05	0.00104 ± 1.2e-05	0.00116 ± 1.3e-05	0.00129 ± 1.5e-05	0.00143 ± 1.6e-05	0.00156 ± 1.8e-05
m1 = 0.001432	0.000635 ± 8e-06	0.000719 ± 9e-06	0.000816 ± 1e-05	0.000925 ± 1.1e-05	0.00103 ± 1.2e-05	0.00114 ± 1.4e-05	0.00126 ± 1.5e-05	0.00138 ± 1.7e-05
m1 = 0.001963	0.000573 ± 7e-06	0.000648 ± 8e-06	0.000736 ± 9e-06	0.000834 ± 1e-05	0.00093 ± 1.1e-05	0.00103 ± 1.2e-05	0.00114 ± 1.3e-05	0.00125 ± 1.5e-05
m1 = 0.003008	0.000498 ± 7e-06	0.000562 ± 7e-06	0.000639 ± 8e-06	0.00072 ± 1e-05	0.000807 ± 1.1e-05	0.000896 ± 1.2e-05	0.00099 ± 1.3e-05	0.00108 ± 1.5e-05

Details	mass density [kg/m3]
283.15 K	817.699 ± 0.22
288.15 K	813.937 ± 0.22
293.15 K	810.147 ± 0.22
298.15 K	806.337 ± 0.22
303.15 K	802.5 ± 0.22
308.15 K	798.633 ± 0.23
313.15 K	794.73 ± 0.23
318.15 K	790.785 ± 0.23
